Measured values published in ChEMBL document CHEMBL1759853, “Imidazo[1,5-a]pyrazines: orally efficacious inhibitors of mTORC1 and mTORC2” (Bioorg Med Chem Lett, 2011).
One block for each compound: values may come before it. Calls of active or inactive are those of the source. The calls are words filed in the database; no cut-off is given here.

Key:
cells = details: Homo sapiens, HeLa
[1] = Metabolic stability in mouse liver microsome assessed as extraction ratio; type: ADME; details: liver microsomes
in vitro = details: human, liver microsomes
Description: Metabolic stability in human liver microsome assessed as extraction ratio

[2] = target: Epidermal growth factor receptor (Homo sapiens, UniProt P00533)
[3] = Permeability of the compound by PAMPA method; type: ADME; details: read-out: permeability
[4] = Volume of distribution at steady-state in mouse at 5 mg/kg, iv; type: ADME, organism-based; set-up: dose 5 mg/kg, route intravenous; details: in vivo, read-out: Vdss
[5] = target: Insulin-like growth factor 1 receptor (Homo sapiens, UniProt P08069); test: Inhibition of IGF-1R
[6] = AUC (0 to infinity) in mouse at 5 mg/kg, iv; type: ADME, organism-based; set-up: dose 5 mg/kg, route intravenous, time infinity; details: plasma
[7] = Plasma protein binding in mouse; type: ADME, cell-free; details: read-out: PPB (converted)
Insulin receptor = Insulin receptor (Homo sapiens, UniProt P06213); test: Inhibition of IR
[8] = AUC (0 to infinity) in mouse at 20 mg/kg, po; type: ADME, organism-based; set-up: time infinity, dose 20 mg/kg, route oral; details: plasma
[9] = target: RAF proto-oncogene serine/threonine-protein kinase (Homo sapiens, UniProt P04049); test: Inhibition of cRaf
[10] = Inhibition of mTORC2 dependent P4E-BP1 T37/46 phosphorylation in human MDA-MB-231 cells; type: cell-based
Mus musculus [11] = test: Toxicity in CD-1 mouse xenografted with human MDA-MB-231 cells assessed as reduction in body weight at 100 mg/kg, po QD for 14 days; type: organism-based; set-up: dose 100 mg/kg, route oral; details: in vivo, 336 h
[12] = Inhibition of mTORC2 dependent pAkT S473 phosphorylation in human BT-20 cells; type: cell-based
[13] = target: Vascular endothelial growth factor receptor 2 (Homo sapiens, UniProt P35968); test: Inhibition of KDR
[14] = target: Proto-oncogene tyrosine-protein kinase Src (Homo sapiens, UniProt P12931); test: Inhibition of Src
Mus musculus [15] = test: […] mouse bearing human MDA-MB-231 cells assessed as inhibition of 4E-BP1 T37/46 phosphorylation at 100 mg/kg, po after 4 hrs; type: functional, organism-based; set-up: dose 100 mg/kg
[16] = Half life in mouse at 5 mg/kg, iv; type: ADME, organism-based; set-up: dose 5 mg/kg, route intravenous; details: in vivo
[17] = target: Phosphatidylinositol 4,5-bisphosphate 3-kinase catalytic subunit gamma isoform (Homo sapiens, UniProt P48736); test: Inhibition of PI3Kgamma
MDA-MB-231 [18] = test: Antitumor activity against human MDA-MB-231 cells xenografted in CD-1 mouse at 100 mg/kg, po QD for 14 days; type: functional
[19] = target: Dual specificity mitogen-activated protein kinase kinase 1 (Homo sapiens, UniProt Q02750); test: Inhibition of MEK1
[20] = target: T1, 3-phosphoinositide-dependent protein kinase 1 (Homo sapiens, UniProt O15530); test: Inhibition of PDK1
T1 sequence (O15530 whole entry): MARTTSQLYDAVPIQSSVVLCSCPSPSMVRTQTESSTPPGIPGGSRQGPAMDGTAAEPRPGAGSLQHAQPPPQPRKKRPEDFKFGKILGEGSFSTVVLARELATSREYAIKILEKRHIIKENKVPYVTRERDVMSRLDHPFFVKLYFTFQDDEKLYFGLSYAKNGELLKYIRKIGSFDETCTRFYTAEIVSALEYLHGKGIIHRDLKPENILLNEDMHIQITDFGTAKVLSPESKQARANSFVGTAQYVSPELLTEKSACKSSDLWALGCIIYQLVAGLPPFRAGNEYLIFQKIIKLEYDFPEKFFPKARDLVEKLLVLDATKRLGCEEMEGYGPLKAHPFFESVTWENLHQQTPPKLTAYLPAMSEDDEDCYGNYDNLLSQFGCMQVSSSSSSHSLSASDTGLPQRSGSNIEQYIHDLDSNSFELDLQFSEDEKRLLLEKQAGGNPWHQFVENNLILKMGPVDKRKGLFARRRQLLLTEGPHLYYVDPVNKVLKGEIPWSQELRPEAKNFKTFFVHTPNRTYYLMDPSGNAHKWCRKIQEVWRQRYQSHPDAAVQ

MDA-MB-231 [21] = test: Antiproliferative activity against human MDA-MB-231 cells; type: functional, cell-based
[22] = Cmax in mouse at 20 mg/kg, po; type: ADME, organism-based; set-up: dose 20 mg/kg, route oral; details: in vivo
[23] = Aqueous solubility of the compound at pH 7.4; type: physicochemical
[24] = target: Tyrosine-protein kinase ABL1 (Homo sapiens, UniProt P00519); test: Inhibition of Abl
Mus musculus [25] = test: […] mouse bearing human MDA-MB-231 cells assessed as inhibition of 4E-BP1 T37/46 phosphorylation at 100 mg/kg, po after 8 hrs; type: functional, organism-based; set-up: dose 100 mg/kg
[26] = Clearance in mouse at 5 mg/kg, iv; type: ADME, organism-based; set-up: dose 5 mg/kg, route intravenous; details: in vivo
[27] = Bioavailability in mouse at 20 mg/kg, po; type: ADME, organism-based; details: in vivo
[28] = Volume of distribution at steady-state in mouse at 1 mg/kg, iv; type: ADME, organism-based; set-up: dose 1 mg/kg, route intravenous; details: in vivo, read-out: Vdss
[29] = AUC (0 to infinity) in mouse at 1 mg/kg, iv; type: ADME, organism-based; set-up: time infinity, dose 1 mg/kg, route intravenous; details: plasma
[30] = Half life in mouse at 1 mg/kg, iv; type: ADME, organism-based; set-up: dose 1 mg/kg, route intravenous; details: in vivo
[31] = Clearance in mouse at 1 mg/kg, iv; type: ADME, organism-based; set-up: dose 1 mg/kg, route intravenous; details: in vivo

Sequence of Proto-oncogene tyrosine-protein kinase Src (P12931 2-536 limits assumed): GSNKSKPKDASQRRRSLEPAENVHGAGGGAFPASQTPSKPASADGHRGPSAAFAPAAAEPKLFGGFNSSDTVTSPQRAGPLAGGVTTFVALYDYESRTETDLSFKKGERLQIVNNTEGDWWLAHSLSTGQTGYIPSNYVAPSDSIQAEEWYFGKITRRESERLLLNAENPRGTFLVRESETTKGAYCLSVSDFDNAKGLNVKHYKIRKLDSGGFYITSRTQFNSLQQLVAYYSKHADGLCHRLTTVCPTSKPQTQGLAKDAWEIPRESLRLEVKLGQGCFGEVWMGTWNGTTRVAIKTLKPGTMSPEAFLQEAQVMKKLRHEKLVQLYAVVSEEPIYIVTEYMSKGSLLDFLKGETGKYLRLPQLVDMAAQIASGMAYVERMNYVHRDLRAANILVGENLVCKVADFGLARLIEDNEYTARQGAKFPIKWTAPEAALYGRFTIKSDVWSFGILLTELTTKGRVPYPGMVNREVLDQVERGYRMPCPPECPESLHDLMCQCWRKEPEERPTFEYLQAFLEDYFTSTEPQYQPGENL
Sequence of Dual specificity mitogen-activated protein kinase kinase 1 (Q02750 whole entry): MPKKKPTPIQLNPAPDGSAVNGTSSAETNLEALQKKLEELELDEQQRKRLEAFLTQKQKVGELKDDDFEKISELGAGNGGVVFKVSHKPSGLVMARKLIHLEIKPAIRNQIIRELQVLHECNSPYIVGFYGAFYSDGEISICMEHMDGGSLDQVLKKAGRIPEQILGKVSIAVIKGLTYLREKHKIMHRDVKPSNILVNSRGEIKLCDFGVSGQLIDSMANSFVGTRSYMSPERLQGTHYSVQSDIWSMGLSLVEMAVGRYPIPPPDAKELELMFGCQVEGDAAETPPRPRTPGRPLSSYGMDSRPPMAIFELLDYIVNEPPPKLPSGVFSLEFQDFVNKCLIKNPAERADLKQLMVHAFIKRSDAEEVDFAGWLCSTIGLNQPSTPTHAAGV
Sequence of Insulin-like growth factor 1 receptor (P08069 31-736 limits assumed): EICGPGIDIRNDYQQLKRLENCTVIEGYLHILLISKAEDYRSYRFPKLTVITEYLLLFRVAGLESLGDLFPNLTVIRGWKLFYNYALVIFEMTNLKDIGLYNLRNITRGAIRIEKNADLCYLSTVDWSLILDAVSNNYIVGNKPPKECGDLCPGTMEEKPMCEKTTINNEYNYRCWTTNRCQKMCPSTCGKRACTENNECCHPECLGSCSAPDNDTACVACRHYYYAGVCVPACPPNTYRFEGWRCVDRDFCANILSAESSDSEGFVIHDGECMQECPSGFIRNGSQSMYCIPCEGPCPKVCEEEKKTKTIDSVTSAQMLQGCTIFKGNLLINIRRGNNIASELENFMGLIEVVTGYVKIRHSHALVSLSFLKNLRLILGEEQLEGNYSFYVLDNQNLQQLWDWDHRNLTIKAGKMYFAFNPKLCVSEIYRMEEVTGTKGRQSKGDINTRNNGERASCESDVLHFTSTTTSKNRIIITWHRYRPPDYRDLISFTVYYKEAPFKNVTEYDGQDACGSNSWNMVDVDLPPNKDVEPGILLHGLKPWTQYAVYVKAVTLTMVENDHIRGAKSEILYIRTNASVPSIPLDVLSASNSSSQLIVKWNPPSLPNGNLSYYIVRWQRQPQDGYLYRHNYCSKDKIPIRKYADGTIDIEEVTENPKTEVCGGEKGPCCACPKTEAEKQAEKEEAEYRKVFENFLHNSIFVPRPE
Sequence of Insulin-like growth factor 1 receptor (P08069 741-1367 limits assumed): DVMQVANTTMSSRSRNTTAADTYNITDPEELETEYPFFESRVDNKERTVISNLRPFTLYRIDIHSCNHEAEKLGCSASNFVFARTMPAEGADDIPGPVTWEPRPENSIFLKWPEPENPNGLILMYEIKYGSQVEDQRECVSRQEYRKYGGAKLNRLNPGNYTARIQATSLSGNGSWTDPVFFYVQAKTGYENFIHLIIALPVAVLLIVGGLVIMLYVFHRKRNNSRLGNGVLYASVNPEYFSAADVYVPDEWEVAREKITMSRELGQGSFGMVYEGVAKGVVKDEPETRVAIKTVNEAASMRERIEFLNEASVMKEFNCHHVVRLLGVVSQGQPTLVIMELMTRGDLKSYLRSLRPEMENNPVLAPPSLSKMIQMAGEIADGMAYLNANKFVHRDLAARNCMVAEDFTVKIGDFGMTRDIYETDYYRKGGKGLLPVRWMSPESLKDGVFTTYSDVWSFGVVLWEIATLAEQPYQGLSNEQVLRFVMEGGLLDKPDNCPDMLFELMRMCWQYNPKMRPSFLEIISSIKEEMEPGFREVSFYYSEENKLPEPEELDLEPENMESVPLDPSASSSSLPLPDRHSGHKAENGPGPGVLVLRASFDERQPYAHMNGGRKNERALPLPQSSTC
Sequence of Tyrosine-protein kinase ABL1 (P00519 whole entry): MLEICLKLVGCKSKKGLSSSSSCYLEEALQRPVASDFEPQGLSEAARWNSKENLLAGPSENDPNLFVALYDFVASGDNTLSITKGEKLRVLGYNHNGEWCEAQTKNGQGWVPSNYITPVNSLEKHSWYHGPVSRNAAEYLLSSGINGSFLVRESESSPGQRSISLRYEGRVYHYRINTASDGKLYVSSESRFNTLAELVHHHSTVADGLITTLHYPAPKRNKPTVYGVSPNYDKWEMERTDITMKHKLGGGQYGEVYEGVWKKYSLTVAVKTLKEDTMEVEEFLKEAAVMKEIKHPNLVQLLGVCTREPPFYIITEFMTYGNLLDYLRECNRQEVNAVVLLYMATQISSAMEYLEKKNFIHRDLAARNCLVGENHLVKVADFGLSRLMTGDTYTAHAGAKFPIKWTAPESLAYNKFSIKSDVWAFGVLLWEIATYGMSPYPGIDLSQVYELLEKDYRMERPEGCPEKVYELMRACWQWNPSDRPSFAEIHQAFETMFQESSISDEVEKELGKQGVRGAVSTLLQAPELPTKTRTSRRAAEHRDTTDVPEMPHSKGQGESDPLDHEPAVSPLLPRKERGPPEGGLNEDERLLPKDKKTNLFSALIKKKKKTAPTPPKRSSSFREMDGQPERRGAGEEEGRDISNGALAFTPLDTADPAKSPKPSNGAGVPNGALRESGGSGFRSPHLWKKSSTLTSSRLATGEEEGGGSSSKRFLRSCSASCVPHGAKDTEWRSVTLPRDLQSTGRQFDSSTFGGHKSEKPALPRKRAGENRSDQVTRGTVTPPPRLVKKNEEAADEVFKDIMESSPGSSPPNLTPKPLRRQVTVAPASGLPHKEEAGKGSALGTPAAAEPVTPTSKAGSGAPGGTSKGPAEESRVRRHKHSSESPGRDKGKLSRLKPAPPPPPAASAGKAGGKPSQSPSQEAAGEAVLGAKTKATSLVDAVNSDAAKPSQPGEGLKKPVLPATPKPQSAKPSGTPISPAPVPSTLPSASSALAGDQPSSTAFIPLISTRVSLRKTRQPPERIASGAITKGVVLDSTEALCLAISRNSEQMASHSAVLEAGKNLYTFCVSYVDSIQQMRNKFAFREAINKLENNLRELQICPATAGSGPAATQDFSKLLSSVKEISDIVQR
Sequence of Insulin receptor (P06213 28-758 limits assumed): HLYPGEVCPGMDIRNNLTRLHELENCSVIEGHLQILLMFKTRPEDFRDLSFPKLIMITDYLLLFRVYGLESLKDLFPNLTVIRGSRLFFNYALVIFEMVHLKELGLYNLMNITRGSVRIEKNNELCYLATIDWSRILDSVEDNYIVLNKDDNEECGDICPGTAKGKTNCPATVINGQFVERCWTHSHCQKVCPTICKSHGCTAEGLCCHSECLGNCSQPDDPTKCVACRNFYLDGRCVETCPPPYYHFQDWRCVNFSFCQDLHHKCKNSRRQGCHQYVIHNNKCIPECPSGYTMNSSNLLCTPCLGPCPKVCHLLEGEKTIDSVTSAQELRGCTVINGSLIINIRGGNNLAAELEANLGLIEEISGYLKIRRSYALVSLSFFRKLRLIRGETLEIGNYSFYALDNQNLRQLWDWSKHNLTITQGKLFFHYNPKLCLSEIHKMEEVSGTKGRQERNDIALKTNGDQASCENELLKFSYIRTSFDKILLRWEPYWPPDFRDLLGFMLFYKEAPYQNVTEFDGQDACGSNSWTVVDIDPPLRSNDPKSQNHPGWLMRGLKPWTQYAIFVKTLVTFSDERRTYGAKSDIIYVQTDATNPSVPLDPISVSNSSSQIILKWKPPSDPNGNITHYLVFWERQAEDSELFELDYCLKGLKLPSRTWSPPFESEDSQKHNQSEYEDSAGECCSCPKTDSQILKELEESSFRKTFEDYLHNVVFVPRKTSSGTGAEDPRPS
Sequence of Insulin receptor (P06213 763-1382 limits assumed): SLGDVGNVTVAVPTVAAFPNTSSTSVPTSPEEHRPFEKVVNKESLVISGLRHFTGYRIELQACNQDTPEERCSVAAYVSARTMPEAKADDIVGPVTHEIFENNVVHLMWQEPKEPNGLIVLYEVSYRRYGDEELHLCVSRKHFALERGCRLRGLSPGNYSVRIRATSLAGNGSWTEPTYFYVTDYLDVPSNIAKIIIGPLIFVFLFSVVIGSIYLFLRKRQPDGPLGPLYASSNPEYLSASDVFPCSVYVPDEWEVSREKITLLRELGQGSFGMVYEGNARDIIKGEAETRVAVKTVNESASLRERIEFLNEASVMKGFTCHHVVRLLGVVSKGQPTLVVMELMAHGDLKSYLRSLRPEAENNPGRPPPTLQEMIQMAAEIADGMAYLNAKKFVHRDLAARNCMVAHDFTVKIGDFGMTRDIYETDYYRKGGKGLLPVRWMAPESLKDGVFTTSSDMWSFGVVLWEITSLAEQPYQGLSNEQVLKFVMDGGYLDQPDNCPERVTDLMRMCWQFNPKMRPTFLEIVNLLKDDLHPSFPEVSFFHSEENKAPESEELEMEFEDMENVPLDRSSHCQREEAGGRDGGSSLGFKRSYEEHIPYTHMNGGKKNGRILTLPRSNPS

IC50 (cells): 260 nM
SMILES: Nc1nccn2c(C3CCC3)nc(-c3cc4ccccc4o3)c12

hepatic extraction ratio [1]: 0.51 | hepatic extraction ratio (in vitro): 0.64 | IC50 (cells): 150 nM
SMILES: Nc1nccn2c1c(-c1cc3ccccc3[nH]1)nc2[C@H]1CC[C@H](CNC=O)CC1

IC50 (cells): 1970 nM
SMILES: Nc1nccn2c(C3CCC3)nc(-c3cccc(O)c3)c12

hepatic extraction ratio [1]: 0.64 | hepatic extraction ratio (in vitro): 0.18 | IC50 (cells): > 10000 nM
SMILES: Nc1nccn2c(C3CCNCC3)nc(-c3cc4ccccc4[nH]3)c12

IC50 [2]: > 10000 nM | Papp [3]: > 25 ×10⁻⁶ cm/s | Vd [4]: 0.4 L/kg | IC50 [5]: > 30000 nM | AUC(0-inf) [6]: 12100 ng·h/mL | fraction unbound [7]: 0.119 | hepatic extraction ratio [1]: 0.67 | IC50 (Insulin receptor): > 30000 nM | AUC(0-inf) [8]: 49400 ng·h/mL | IC50 [9]: 1700 nM | IC50 [10]: 7800 nM | IC50 [12]: 1380 nM | IC50 [13]: > 10000 nM | IC50 [14]: 770 nM | half-life [16]: 0.9 h | IC50 [17]: > 30000 nM | hepatic extraction ratio (in vitro): 0.68 | IC50 (cells): 120 nM | IC50 [19]: > 10000 nM | IC50 [20]: > 30000 nM | IC50 (MDA-MB-231 [21]): 9300 nM | Cmax [22]: 35.9 µM | solubility [23]: > 100 µM | IC50 [24]: > 10000 nM | clearance [26]: 7 mL/min/kg | bioavailability [27]: 102%
SMILES: CN(C)C(=O)N1CCC(c2nc(-c3cc4ccccc4[nH]3)c3c(N)nccn23)CC1
Activity (Mus musculus [11]): Toxic | Activity (Mus musculus [15]): Active | Activity (MDA-MB-231 [18]): 94% | Activity (Mus musculus [25]): Active

hepatic extraction ratio [1]: 0.43 | hepatic extraction ratio (in vitro): 0.44 | IC50 (cells): 690 nM
SMILES: CC(=O)N1CCC(c2nc(-c3cc4ccccc4[nH]3)c3c(N)nccn23)CC1

IC50 (cells): 2600 nM
SMILES: Nc1nccn2c(C3CCC3)nc(-c3ccc4nccnc4c3)c12

IC50 (cells): 1370 nM
SMILES: CN1CCN(C(=O)N2CCC(c3nc(-c4cc5ccccc5[nH]4)c4c(N)nccn34)CC2)CC1

IC50 (cells): > 9000 nM
SMILES: Nc1nccn2c(C3CCC3)nc(-c3ccc4ccc(-c5ccccc5)nc4c3)c12

hepatic extraction ratio [1]: 0.2 | hepatic extraction ratio (in vitro): 0.44 | IC50 (cells): 4000 nM
SMILES: CN1CCN([C@H]2C[C@@H](c3nc(-c4cc5ccccc5[nH]4)c4c(N)nccn43)C2)CC1

IC50 (cells): 2350 nM
SMILES: Nc1nccn2c(C3CCC3)nc(-c3cnc4ccccc4c3)c12

hepatic extraction ratio [1]: 0.94 | hepatic extraction ratio (in vitro): 0.92 | IC50 (cells): 460 nM
SMILES: Nc1nccn2c(C3CCC3)nc(-c3cc4ccccc4[nH]3)c12

Papp [3]: > 25 ×10⁻⁶ cm/s | Vd [28]: 0.2 L/kg | IC50 [5]: 2720 nM | fraction unbound [7]: 0.097 | IC50 (Insulin receptor): 22600 nM | AUC(0-inf) [8]: 73800 ng·h/mL | IC50 [9]: 180 nM | IC50 [10]: 7400 nM | IC50 [12]: 1260 nM | AUC(0-inf) [29]: 6880 ng·h/mL | IC50 [14]: 5300 nM | IC50 [17]: > 30000 nM | IC50 (cells): 210 nM | IC50 [19]: 960 nM | IC50 [20]: 11200 nM | half-life [30]: 1.6 h | IC50 (MDA-MB-231 [21]): 7400 nM | Cmax [22]: 30.6 µM | solubility [23]: > 100 µM | clearance [31]: 2 mL/min/kg | IC50 [24]: 1960 nM | bioavailability [27]: 54%
SMILES: CC(=O)NC[C@H]1CC[C@H](c2nc(-c3cc4ccccc4[nH]3)c3c(N)nccn32)CC1
Activity (Mus musculus [15]): Active | Activity (Mus musculus [25]): Active

IC50 (cells): > 10000 nM
SMILES: Nc1nccn2c(C3CCC3)nc(-c3ccc4occc4c3)c12

hepatic extraction ratio [1]: 0.67 | hepatic extraction ratio (in vitro): 0.74 | IC50 (cells): 220 nM
SMILES: Nc1nccn2c1c(-c1cc3ccccc3[nH]1)nc2[C@H]1CC[C@H](CO)CC1

IC50 (cells): 1360 nM
SMILES: Nc1nccn2c(C3CCC3)nc(-c3ccc4ccccc4c3)c12
